“And” between values parts separate entries of the source, which are not always exact repeats. Equal entries are not always repeated.
Key:
[1] = test system: IL-13; assay: Human primary Th2 cells, anti-CD3/anti-CD28 activated, IL-13 ELISA; format: cell-based
Procedure: Briefly, CD4^+CD45RA^+ T cells, isolated from donor peripheral blood mononuclear cells of healthy donors, are educated in the presence of anti-CD3/CD28 antibodies and various growth factors to obtain either a Thl-like or Th2-like phenotypes as determined by the known cytokine profiles of these two cell types.
Peripheral blood mononuclear cells (PBMC) are prepared from human blood by Ficoll-Hypacque (Pharmacia). The cells are washed two times in Hanks balanced salt solution (HBSS) and counted.
Naive T cells (CD4^+/CD45RA ) are prepared by negative selection method using following antibodies and Dynabeads: anti-CD8, anti-HLA-DR, (where HLA means human leucocyte antigen) anti-CD14, anti-CD16, anti-CD19, anti-CD45RO antibodies (all from R&D Systems, 1-2 µg/ml) are added to the cells, and the cells are kept on ice for 30 min. The cells are washed two times in HBSS, and goat anti- mouse Ig-beads, (bead:target ratio, 5:1) are added. The cells and beads are slowly rotated at 4°C for 20 min. (following the protocol supplied from Dynal). The supernatant is removed and fresh goat anti-mouse Ig-beads are added to the supernatant, which is slowly rotated at 4°C for 20 min. The cells are counted and phenotypically characterized by flow cytometric analysis.
CD4^+/CD45RA^+ cells at a density of 10^6/ml in RPMI, is prepared and added to RPMI medium containing 10% Hyclone serum/ glutamine and 1-2 µg/ml anti-CD28 Ab. The cells are split in two aliquots. For Th1 cells: anti-IL-4 Ab (1-2 µg/ml), IFN-γ (1 µg/ml, or 5000 units/ml) are added to the wells. For Th2 cells: IL-4 (100-200 ng/ml), anti-IFN-γ neutralizing Ab (1-2 µg/ml), anti-IL-12 neutralizing Ab (1-2 µg/ml) are added into the wells. […] The cells are transferred to fresh wells and grown in 200 units/ml IL-2 for 2 weeks by feeding them every other day with IL-2 containing medium and splitting the cultures 1:2 or 1:3 as needed. The degree of polarization is determined by intracellular staining of cells with anti-IFN-γ and anti-IL-4 antibodies from Pharmingen, and using flow cytometry from Becton Dickinson (BD), according to manufacturers description. The cells are stimulated with PHA and alloantigens at day 14 and 28 as described below. Eight days after the second allostimulation the cells can be used for compound screening or frozen for future use. For compound testing, large quantities of Th1 and Th2 cells derived from a given donor (NYTh1 and NYTh2) were expanded and frozen as aliquots in liquid nitrogen. The cells are thawed and cultured as and when needed. The thawed cells are stimulated with alloantigen/PHA combination. The cells are used for compound screening after 8-10 days in culture.
Re-stimulation by allogeneic cells: Human PBMCs, to be used as alloantigens, are isolated from freshly drawn blood by Ficoll separation. […] Cells are counted and diluted to a final concentration of 2 x 10^6/ml in medium containing 10 µg/ml PHA and 200 units/ml IL-2.
Ninetysix well Falcon tissue culture plates (Fisher Scientific) are coated with 100 microliters per well of 10 µg/ml anti-CD3 (PharMingen) antibody in phosphate buffered saline (PBS) and stored at 4°C one day before the experiment.
On the day of assay, anti-CD3 antibody coated plates are washed with PBS once to remove all soluble anti-CD3 antibody. […] All compounds and controls are assayed in triplicates.

[2] = test system: Anti-OVA IgE; assay: OVA induced allergen specific IgE in mice; format: in vivo; conditions: bled at day 15, vehicle 150.8
Procedure: Female mice (5-8 week age, Balb/c, Charles River) were used in this study. Ovalbumin (Sigma) was adsorbed to Aluminum Hydroxide Adsorptive Gel, Inter, and injected 10 µg/0.2ml/mouse intraperitoneally on experimental day 0 and day 7. […] They were bled at day 15. Serum ovalbumin specific IgE levels were determined by standard ELISA using a goat anti-mouse IgE antibody labeled with alkaline phosphatase. The anti-OVA titers were determined by making serial dilutions of the test sera and comparing with vehicle control.

[3] = test system: eosinophil; assay: OVA-induced lung inflammation in Brown Norway rats, eosinophil influx into bronchoalveolar fluid; format: in vivo; conditions: Rattus norvegicus, ip, intraperitoneal injection, FIG. 2, read-out: ED50, inhibition of the influx of eosinophil
Procedure: Rat model was very similar to the mouse models described earlier. Briefly, the lung inflammatory model described by Haczku et al. was used with minor modifications (Haczku A., et al., Immunology, (1996), 88, 247-251). Male Brown Norway rats, weighing 160-200 grams were sensitized with intraperitoneal injection of 1ml of a suspension containing ovalbumin (1 mg) and Al(OH)3 (100 mg) on days 1, 2 and 3. Three weeks later, the rats were treated with vehicle or drugs via intraperitoneal injections. One hour later, the rats were challenged with ovalbumin inhalation (1% solution, 10 mg/ml in sterilized saline) for 20 minutes in a 10 liter Plexiglas chamber which was connected to a DeVilbiss (Ultra-NEB®99) nebulizer with a carrier air flow of 1 liter/minute.
Results of dose response studies of 3-(4-pyridinylamino)-1H-indole-2-carboxylic acid on eosinophil influx into the bronchoalveolar fluid of ovalbumin sensitized and challenged Brown Norway rats are depicted as bar graphs in FIG. 2. Single dose of cyclosporin A (CsA) and dexamethasone (Dex) were also included as reference standards.

[4] = test system: IgG2a Anti-DNP Antibody; assay: In vivo model of humoral immunity in mice (DNP-KLH), IgG2a anti-DNP antibody
Procedure: Female Balb/c mice, each weighing approximately 20 to 25 grams each, aged 5 to 8 weeks are used. Each experiment uses 30 mice.
The antigen for immunization is 2,4-dinitrophenyl (DNP) or 2,4,6-trinitrophenyl (TNP) conjugated to keyhole limpet haemocyanin (KLH). The antigen (100 µg/mouse) is adsorbed to an adjuvant (colloidal aluminum hydroxide) and given i.p. to animal in a total volume of 0.2-0.3 ml.
Animals are randomly divided into 5 groups of 6 mice each. Group 1 is a positive control group, Groups 2, 3, and 4 are test compound groups, and Group 5 is a vehicle control group. Compounds may be given by i.n., i.p., p.o., s.c., i.m. or i.v. administration. […] On day 8 after the immunization, mice are bled by cardiac puncture under anesthesia (isoflurane), and the serum samples are stored at -20°C until required for antibody analysis. The anesthetized animals are euthanized with overdosage of sodium pentobarbital at the end of experiment. Statistical analysis of the data are performed using ANOVA.
Mice are immunized with a hapten carrier conjugate, DNP-KLH, and anti-DNP antibody levels are determined in a isotype specific manner as described above. […]

`O=C(O)c1[nH]c2ccccc2c1Nc1ccncc1` [Example 28, 3-(4-Pyridinylamino)-1H-indole-2-carboxylic acid] gave an activity at 0.01 µM ([1]; Homo sapiens, 0.01 µM, 48 hr, read-out: IL-13 (% control) mean) of 91%, an activity at 0.03 µM ([1]; Homo sapiens, 0.03 µM, 48 hr, read-out: IL-13 (% control) mean) of 86.4% and an activity at 0.1 µM ([1]; Homo sapiens, 0.1 µM, 48 hr, read-out: IL-13 (% control) mean) of 82.3%. For the same compound, the activity at 0.3 µM ([1]; Homo sapiens, 0.3 µM, 48 hr, read-out: IL-13 (% control) mean) was 80.6%, the activity at 1 µM ([1]; Homo sapiens, 1 µM, 48 hr, read-out: IL-13 (% control) mean) was 75.2% and the activity at 3 µM ([1]; Homo sapiens, 3 µM, 48 hr, read-out: IL-13 (% control) mean) was 73.4%. For the same compound, the activity at 10 µM ([1]; Homo sapiens, 10 µM, 48 hr, read-out: IL-13 (% control) mean) was 68.4%, the IC50 ([1]; Human primary Th2 cells, combined data from 10 different experiments) was about 10 µM and the “Anti-OVA IgE” value ([2]; 3 mg/kg intraperitoneally once a day from day 6 to day 14) was 41.8. For the same compound, the “Anti-OVA IgE” value ([2]; 10 mg/kg intraperitoneally once a day from day 6 to day 14) was 45.6, the ED50 [3] was 10.1 mg/kg and the “IgG2a Anti-DNP Antibody Titer” value ([4]; individual animals 1-6, dose not stated) was 30.59 and 38.60 and 14.09 and 17.45 and 30.21 and 27.98. The “IgG2a Anti-DNP Antibody Titer Mean+/-SE” value ([4]; vehicle 30.47 +/-2.37, dose not stated) was 26.49 +/-3.72 and the “IgG2a Anti-DNP Antibody Titer Inhibition” value ([4]; versus vehicle) was 13%.
